Measured values as given in US20190055517A1, “Cell Line of M2c Macrophage and Its Applications” (National Pingtung University of Science and Technology, priority 2017, published 2019).

What was measured:
[1] = tested on: murine M2 macrophage; experiment: Macrophage phenotype by flow cytometry (CD86, CD206) after drug-induced differentiation; format: cell-based; settings: conditions of chart 2, p<0.05, FIG. 3
Description: (§1) Use PBS containing 0.5% BSA to flush out bone marrow cells from murine (C57BL/6J, 8-20 weeks, Taiwan National Laboratory Animal Center) femur, then use Ficoll-Hypaque (GE healthcare, SWEDEN) to isolate monocytes.
(§2) Then, incubate 2×10^6 monocytes in 50 ng/ml M-CSF contained RPMI 1640 (10% FCS) medium under 37° c., 5% CO2 for seven days to induce M2 macrophage polarization. On the eighth day, collect 2×10^5 M2 macrophage and incubate them in RPMI 1640 (10% FCS) medium with Baicalin (50 μM, Tokyo Chemical Industry, JAPAN) for 24 hours. Baicalin will induce M2 macrophage to differentiate into M2C macrophage.
Embodiment 1 is prepared by the steps described above, isolate monocytes from murine bone marrow and use M-CSF to induce differentiation of M2 macrophage, and then use baicalin to induce M2C macrophage polarization. In comparison 1, incubate murine M2 macrophage in RPMI 1640 (10% FCS) containing LPS (lipopolysaccharide, 1 μg/ml, Sigma-Aldrich) for 2 hours. In comparison 2, incubate murine M2 macrophage in medium containing IL-4 ([…] Guidance System, Cambridge, UK) for 24 hours. The control group of M2 macrophage is incubated in RPMI 1640 (10% FCS) without any drugs. The conditions are shown below in chart 2.
After induced differentiation is complete, use flow cytometry to analyse the macrophage phenotype, in the meantime, also use real time PCR (qPCR) to observe mRNA expression level of each gene.
(§3) FIG. 2˜4 show results of macrophage phenotypes analysed by flow cytometry.

[2] = tested on: murine M2 macrophage; experiment: Phagocytosis of FITC-Latex beads with PE-anti-MERTK staining (flow cytometry, fluorescence microscopy); format: cell-based; settings: fluorescence microscope, PE-MERTK, FIG. 18
Description: In this example, experiment was performed to evaluate the effect of baicalin induced differentiated […] macrophages in promoting phagocytosis. Treatment conditions of drugs in each group is listed in chart 2, and control group is cultured in RPMI1640 (10% FCS) without any drugs. After treatment, collect 5×10^5 treated cells respectively and add 50 μl FITC-Latex beads (Phagocytosis assay kit (IgG FITC), Cayman Chemical, USA.) to perform phagocytosis experiment for 24 hours, and then use PE-anti-MERTK antibody to mark the cells and observe the fluorescence expression with flow cytometry.

[3] = tested on: Raw264.7 macrophages; experiment: H2O2 induction of apoptotic cells (annexin-V / 7-AAD flow cytometry); format: cell-based, murine; settings: 1.5 mM H2O2 versus 0.5 and 1 mM, 12 hours, FIG. 19
Description: Inducing apoptotic cells: minor changes were made from steps of obtaining apoptotic cells based on previous studies (Piao et al., 2011 and Fong et al 2007), detailed steps comprising: culture 1.5×10^6 RAW264.7 macrophages with DMEM medium containing 10% FBS in incubator (37° C., 5% CO2). After culturing overnight, treat with 0.5, 1, 1.5 mM H2O2 respectively in DMEM for 12 hours. Next, remove the DMEM medium containing H2O2 and wash the cells with PBS buffer, then use micropipette to transfer cells to 15 ml centrifuge tube and centrifuge cells at 4° C. for 5 mins at rotating speed of 500×g. Remove the supernatant and resuspend the cells with 95 μl […]. Following that, dye the cells with fluorescence marker annexin-V and 7-AAD (BD Bioscience) for 20 mins on ice, avoiding light. After marking the cells, use flow cytometry (FACS BD ARIA II) to detect fluorescence performance. Analysed by software CellQuest (BD Bioscience). If the cells were positive for annexin-V and negative for 7-AAD, the cells will be identified as early apoptotic cells; if the cells were positive for annexin-V and positive for 7-AAD, the cells would be identified as late apoptotic cells.

[4] = tested on: monocytes from murine bone marrow; experiment: M-CSF induced M2 polarization of bone marrow monocytes (flow cytometry CD11b, CD206, CD80); format: cell-based; settings: 50 ng/ml M-CSF, treated for 7 days, p<0.05, FIG. 2
Description: as §1, §2, §3

lipopolysaccharide [LPS, reference compound]
percentage of M1 macrophage (CD86+CD206-) [1]: higher
MERTK fluorescence distribution of cells after phagocytosing FITC-Latex beads [2]: comparatively weaker

OO [Embodiment H2O2, H2O2]
percentage of apoptotic cells [3]: higher percentage of apoptotic cells

B1: macrophage colony-stimulating factor (protein, UniProt P09603 33-554, looked up)
Macrophage colony-stimulating …: EEVSEYCSHMIGSGHLQSLQRLIDSQMETSCQITFEFVDQEQLKDPVCYLKKAFLLVQDIMEDTMRFRDNTPNAIAIVQLQELSLRLKSCFTKDYEEHDKACVRTFYETPLQLLEKVKNVFNETKNLLDKDWNIFSKNCNNSFAECSSQDVVTKPDCNCLYPKAIPSSDPASVSPHQPLAPSMAPVAGLTWEDSEGTEGSSLLPGEQPLHTVDPGSAKQRPPRSTCQSFEPPETPVVKDSTIGGSPQPRPSVGAFNPGMEDILDSAMGTNWVPEEASGEASEIPVPQGTELSPSRPGGGSMQTEPARPSNFLSASSPLPASAKGQQPADVTGTALPRVGPVRPTGQDWNHTPQKTDHPSALLRDPPEPGSPRISSLRPQGLSNPSTLSAQPQLSRSHSSGSVLPLGELEGRRSTRDRRSPAEPEGGPASEGAARPLPRFNSVPLTDTGHERQSEGSFSPQLQESVFHLLVPSVILVLLAVGGLLFYRWRRRSHQEPQRADSPLEQPEGSPLTQDDRQVELPV
notes: 50 ng/ml, induces M2 macrophage polarization of monocytes
percentage of cells expressing CD11b and CD206 at the same time (CD11b+CD206+) [4]: highest percentage

B2: IL-4: cytokine, 10 ng/ml, 24 hours, comparison drug to induce differentiation (protein, UniProt P05112 25-153, looked up)
Interleukin-4: HKCDITLQEIIKTLNSLTEQKTLCTELTVTDIFAASKNTTEKETFCRAATVLRQFYSHHEKDTRCLGATAQQFHRHKQLIRFLKRLDRNLWGLAGLNSCPVKEANQSTLENFLERLKTIMREKYSKCSS
percentage of M2 macrophage (CD86-CD206+) [1]: higher
